Calls of active or inactive are those of the source.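 How the source made its calls: active means valid curve fit with half-effect dose at most 10 µM and total binding change across doses of 30 points or more; inactive means the rest.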
Legend:
Cdc42 wt = experiment: inhibitors of Bodipy-GTP binding across eight GTPases, SAR follow-up, selectivity assay for Cdc42 probe extension project, biochemical, round 1 SAR, Mg buffer, multiplex flow cytometry (AID 588477); conditions: GST-GTPase beads
[1] = as above; conditions: GST-GTPase beads, Cdc42 constitutively active

| EC50 (Cdc42 wt) [µM] | EC50 [1] [µM] | percent response (remaining binding) (Cdc42 wt; at 100 µM (top of the series)) | percent response (remaining binding) ([1]; at 100 µM (top of the series)) | Structure (SMILES) |
| --- | --- | --- | --- | --- |
| 2.41 | 3.69 |  |  | COc1ccc(C2CC(c3ccccc3)=NN2c2ccc(S(N)(=O)=O)cc2)cc1 (stereo unspecified) |
|  | 2.68 | inactive |  | O=C(C#Cc1ccccc1)c1cccc([N+](=O)[O-])c1 |
| 7.26 |  |  | inactive | NS(=O)(=O)c1ccc(N2N=C(c3ccccc3)CC2c2ccccc2)cc1 (stereo unspecified) |
